Results on five molecules are retold here after ChEMBL document CHEMBL5543142, “Discovery of YFJ-36: Design, Synthesis, and Antibacterial Activities of Catechol-Conjugated β-Lactams against Gram-Negative Bacteria” (J Med Chem, 2024).

A value given as a limit tells only on which side of the number the result lay.

The subject of data set [1] is Acinetobacter baumannii. The data set can be described thus: Antibacterial activity against OXA-23 producing multidrug-resistant Acinetobacter baumannii clinical isolate 15-2 assessed as inhibition of bacterial growth incubated for 18 to 20 hrs by two fold serial dilution assay. Type of data set: functional. The settings on record: time 18-20 hrs.
Data set [2] in a line: Clearance in ICR mouse at 20 mg/kg,iv administration measured upto 6 hrs by LC-MS/MS analysis. To be noted: in vivo. Type of data set: ADME, organism-based.
Data set [3] deals with Acinetobacter baumannii. The data set can be described thus: Antibacterial activity against OXA-23 producing multidrug-resistant Acinetobacter baumannii clinical isolate 15-4 assessed as inhibition of bacterial growth incubated for 18 to 20 hrs by two fold serial dilution assay. Type of data set: functional. The settings on record: time 18-20 hrs.
A short description of data set [4]: Volume of distribution at steady state in ICR mouse at 20 mg/kg,iv administration measured upto 6 hrs by LC-MS/MS analysis. Type of data set: ADME, organism-based. To be noted: in vivo, read-out: Vdss.
For data set [5], the system named is Klebsiella pneumoniae. The data set can be described thus: Antibacterial activity against KPC-2 producing multidrug-resistant Klebsiella pneumoniae clinical isolate 15-2 assessed as inhibition of bacterial growth incubated for 18 to 20 hrs by two fold serial dilution assay. It counts as functional. To be noted: time 18-20 hrs.
Data set [6] concerns Escherichia coli. The data set can be described thus: Antibacterial activity against ESBL-producing multidrug-resistant Escherichia coli clinical isolate 14-4 assessed as inhibition of bacterial growth incubated for 18 to 20 hrs by two fold serial dilution assay. Type of data set: functional. To be noted: time 18-20 hrs.
Data set [7] can be described thus: Half life in ICR mouse at 20 mg/kg,iv administration measured upto 6 hrs by LC-MS/MS analysis. It counts as ADME, organism-based. To be noted: in vivo.
For data set [8], the system named is Pseudomonas aeruginosa. The data set can be described thus: Antibacterial activity against IMP-4 producing multidrug-resistant Pseudomonas aeruginosa clinical isolate 19-17 assessed as inhibition of bacterial growth incubated for 18 to 20 hrs by two fold serial dilution assay. To be noted: time 18-20 hrs. Type of data set: functional.
Data set [9] concerns Pseudomonas aeruginosa. Briefly: Antibacterial activity against IMP-4 producing multidrug-resistant Pseudomonas aeruginosa clinical isolate 17-13 assessed as inhibition of bacterial growth incubated for 18 to 20 hrs by two fold serial dilution assay. It counts as functional. The settings on record: time 18-20 hrs.
Data set [10] deals with Acinetobacter baumannii. Briefly: Antibacterial activity against OXA-23 producing multidrug-resistant Acinetobacter baumannii clinical isolate 15-3 assessed as inhibition of bacterial growth incubated for 18 to 20 hrs by two fold serial dilution assay. Type of data set: functional. To be noted: time 18-20 hrs.
Data set [11] has as its system Klebsiella pneumoniae. Briefly: Antibacterial activity against KPC-2 producing multidrug-resistant Klebsiella pneumoniae clinical isolate 15-5 assessed as inhibition of bacterial growth incubated for 18 to 20 hrs by two fold serial dilution assay. It counts as functional. To be noted: time 18-20 hrs.
A short description of data set [12]: MRT in ICR mouse at 20 mg/kg,iv administration measured upto 6 hrs by LC-MS/MS analysis. Type of data set: ADME, organism-based. To be noted: in vivo.
Data set [13] deals with Acinetobacter baumannii. The data set can be described thus: Antibacterial activity against OXA-23 producing multidrug-resistant Acinetobacter baumannii clinical isolate 15-5 assessed as inhibition of bacterial growth incubated for 18 to 20 hrs by two fold serial dilution assay. It counts as functional. The settings on record: time 18-20 hrs.
The subject of data set [14] is Acinetobacter baumannii. The data set can be described thus: Antibacterial activity against OXA-23 producing multidrug-resistant Acinetobacter baumannii clinical isolate 15-1 assessed as inhibition of bacterial growth incubated for 18 to 20 hrs by two fold serial dilution assay. It counts as functional. To be noted: time 18-20 hrs.
Data set [15] relates to Escherichia coli. The data set can be described thus: Antibacterial activity against ESBL-producing multidrug-resistant Escherichia coli clinical isolate 14-2 assessed as inhibition of bacterial growth incubated for 18 to 20 hrs by two fold serial dilution assay. The settings on record: time 18-20 hrs. Type of data set: functional.
Data set [16] has as its system Klebsiella pneumoniae. The data set can be described thus: Antibacterial activity against KPC-2 producing multidrug-resistant Klebsiella pneumoniae clinical isolate 15-1 assessed as inhibition of bacterial growth incubated for 18 to 20 hrs by two fold serial dilution assay. It counts as functional. To be noted: time 18-20 hrs.
Data set [17] is described as follows: AUC (0 to infinity) in ICR mouse at 20 mg/kg,iv administration measured upto 6 hrs by LC-MS/MS analysis. The settings on record: in vivo. Type of data set: ADME, organism-based.
The test system of data set [18] is Escherichia coli. The data set can be described thus: Antibacterial activity against ESBL-producing multidrug-resistant Escherichia coli clinical isolate 14-1 assessed as inhibition of bacterial growth incubated for 18 to 20 hrs by two fold serial dilution assay. To be noted: time 18-20 hrs. Type of data set: functional.
Data set [19] relates to Escherichia coli. The data set can be described thus: Antibacterial activity against Escherichia coli ATCC35218 assessed as inhibition of bacterial growth incubated for 18 to 20 hrs by two fold serial dilution assay. The settings on record: time 18-20 hrs. It counts as functional.
Data set [20] concerns Klebsiella pneumoniae. Briefly: Antibacterial activity against KPC-2 producing multidrug-resistant Klebsiella pneumoniae clinical isolate 15-3 assessed as inhibition of bacterial growth incubated for 18 to 20 hrs by two fold serial dilution assay. Type of data set: functional. To be noted: time 18-20 hrs.
Data set [21] relates to Pseudomonas aeruginosa. The data set can be described thus: Antibacterial activity against IMP-4 producing multidrug-resistant Pseudomonas aeruginosa clinical isolate 17-1 assessed as inhibition of bacterial growth incubated for 18 to 20 hrs by two fold serial dilution assay. It counts as functional. The settings on record: time 18-20 hrs.
The test system of data set [22] is Acinetobacter baumannii. The data set can be described thus: Antibacterial activity against OXA-23 producing multidrug-resistant Acinetobacter baumannii clinical isolate 17-2 assessed as inhibition of bacterial growth incubated for 18 to 20 hrs by two fold serial dilution assay. The settings on record: time 18-20 hrs. It counts as functional.
Data set [23] has as its system Pseudomonas aeruginosa. The data set can be described thus: Antibacterial activity against IMP-4 producing multidrug-resistant Pseudomonas aeruginosa clinical isolate 19-5 assessed as inhibition of bacterial growth incubated for 18 to 20 hrs by two fold serial dilution assay. Type of data set: functional. To be noted: time 18-20 hrs.
Data set [24] relates to Acinetobacter baumannii. Briefly: Antibacterial activity against OXA-23 producing multidrug-resistant Acinetobacter baumannii clinical isolate 17-3 assessed as inhibition of bacterial growth incubated for 18 to 20 hrs by two fold serial dilution assay. It counts as functional. The settings on record: time 18-20 hrs.

For the molecule `CC1CCC(C(O/N=C(\C(=O)N[C@@H]2C(=O)N3C(C(=O)O)=C(CSCCNC(=O)c4ccc(O)c(O)c4Cl)CS[C@H]23)c2csc(N)n2)C(=O)O)CC1.O=C(O)C(F)(F)F` (stereo not given in full), the MIC – broadly, the least concentration at which growth counts as inhibited – in [1] amounted to 8 mg/L; in data set [3], 4 mg/L; in data set [5] it was 0.5 mg/L; in data set [6], 0.125 mg/L; in data set [8], 0.5 mg/L; in data set [9], 0.5 mg/L. The MIC in data set [10] was 4 mg/L; in data set [11] it was 0.5 mg/L; in data set [13] it was 8 mg/L; in data set [14] it was 4 mg/L; in data set [15], 0.5 mg/L; in data set [16] it was 1 mg/L. Further, the MIC in data set [18] is 0.5 mg/L; in data set [19], at most 0.03 mg/L; in [20], 1 mg/L. Besides, the clearance – broadly, the rate of elimination divided by the concentration – in data set [2] came out at 3.62 L/h/kg. The Vd in data set [4] was 2.37 L/kg. For the same molecule, in data set [7], the half-life (in general, the time needed for the level to fall by half in the phase considered) was 139 min. In data set [12], the MRT (as a rule, a mean duration of stay, worked out from the concentration-time curve) is 35.4 min. Further, the AUC(0-inf) – broadly, the area under the concentration-time curve extrapolated to infinity – in data set [17] turned out to be 5.75 µg·h/mL.

On to `Nc1nc(/C(=N/OC(C(=O)O)C2CCCCC2)C(=O)N[C@@H]2C(=O)N3C(C(=O)O)=C(CSCCNC(=O)c4ccc(O)c(O)c4Cl)CS[C@H]23)cs1.O=C(O)C(F)(F)F` (stereo not given in full), for which the MIC in [1] worked out at 4 mg/L; in data set [3], 8 mg/L; in data set [5], 2 mg/L; in data set [6] it was 0.125 mg/L; in data set [8], 0.5 mg/L; in data set [9] it was 1 mg/L. Also, the MIC in data set [10] amounted to 8 mg/L; in [21] it was 4 mg/L; in data set [11], 1 mg/L; in [13], 4 mg/L; in data set [14], 8 mg/L; in data set [15], 1 mg/L. Moreover, the MIC stood at 4 mg/L in data set [16], 0.125 mg/L in data set [18], 0.125 mg/L in [19] and 2 mg/L in data set [20]. In [2], this molecule returned a clearance of 5.41 L/h/kg. Besides, the Vd in data set [4] was determined as 1.73 L/kg. This molecule also gave a half-life in [7] of 42 min. The MRT in data set [12] was 18 min. This molecule yielded an AUC(0-inf) in [17] of 3.44 µg·h/mL.

With `CC(C)(C)C1CCC(C(O/N=C(\C(=O)N[C@@H]2C(=O)N3C(C(=O)O)=C(CSCCNC(=O)c4ccc(O)c(O)c4Cl)CS[C@H]23)c2csc(N)n2)C(=O)O)CC1.O=C(O)C(F)(F)F` (stereo not given in full), the MIC in [1] came to 8 mg/L; in [3], 8 mg/L; in data set [5], 1 mg/L; in data set [6] it was 0.25 mg/L; in data set [8] it was 0.5 mg/L; in data set [9], 4 mg/L. Moreover, the MIC in data set [10] came to 8 mg/L; in data set [21], 4 mg/L; in data set [11], 1 mg/L; in data set [13], 8 mg/L; in data set [14], 8 mg/L; in [15], 0.5 mg/L. The MIC turned out to be 1 mg/L in data set [16], 0.125 mg/L in data set [18], 0.06 mg/L in data set [19] and 2 mg/L in data set [20]. This molecule also registered a clearance in data set [2] of 3.48 L/h/kg. Also, the Vd in data set [4] came out at 7.23 L/kg. Further, in data set [7], the half-life was 299 min. The molecule further showed an MRT in data set [12] of 103 min. Also, in data set [17], the AUC(0-inf) is 6.67 µg·h/mL.

Regarding `Nc1nc(/C(=N/OC(C(=O)O)C2CCCCC2)C(=O)N[C@@H]2C(=O)N3C(C(=O)O)=C(CSCCNC(=O)c4ccc(O)c(O)c4Cl)CS[C@H]23)c(Cl)s1.O=C(O)C(F)(F)F` (stereo not given in full), the MIC turned out to be 1 mg/L in [22]; 2 mg/L in data set [1]; 2 mg/L in [3]; 1 mg/L in data set [5]; 0.5 mg/L in data set [6]; 0.5 mg/L in data set [8]. The MIC in data set [9] turned out to be 0.25 mg/L; in [10], 4 mg/L; in data set [11], 1 mg/L; in [13], 4 mg/L; in data set [14] it was 4 mg/L; in data set [15], 0.5 mg/L. The MIC in [16] was determined as 1 mg/L; in data set [18], 0.25 mg/L; in data set [23] it was 1 mg/L; in data set [19], 0.125 mg/L; in data set [20], 2 mg/L; in data set [24], 2 mg/L.

With `Cc1ccc(S(=O)(=O)O)cc1.Nc1nc(/C(=N/OC(C(=O)O)C2CCC(F)(F)CC2)C(=O)N[C@@H]2C(=O)N3C(C(=O)O)=C(CSCCNC(=O)c4ccc(O)c(O)c4Cl)CS[C@H]23)cs1` (stereo not given in full), in data set [2], the clearance came out at 1.88 L/h/kg. Besides, the Vd in [4] came out at 0.402 L/kg. This molecule also showed a half-life in data set [7] of 45 min. The MRT in data set [12] came to 12 min. Besides, the AUC(0-inf) in data set [17] came to 11.6 µg·h/mL.
